Values of other authors as cited in patent US20040002079A1.

Conditions: steady state, red cells vs plasma, different individuals

In the case of `[Li]` [lithium, Lithium], the “lithium ratio [Li]cell/[Li]pl” value is given as 0.2 to 0.8.
